Data reported in patent publication US7071222B2, “Preparation containing a combination of 5-methylisoxazole-4-carboxylic acid-(4-trifluoromethyl)-anilide and N-(4-trifluoromethylphenyl)2-cyano-3-hydroxycrotonic acid amide” (Sanofi-Aventis Deuschland GmbH, priority 1996, dated 2006).

Columns and labels:
[1] = Oral administration of compound 1 or compound 2 on its own (background statement); type: in vivo; conditions: 5 mg or 10 mg per kg, each compound on its own
[2] = tested on: Adjuvant-induced arthritis; experiment: Adjuvant-induced arthritis, modification in accordance with Perper; type: in vivo, rats of a Lewis strain; conditions: Compound 1 10 mg/kg of rat, Compound 2 0 mg/kg; oral once daily day 1-12; determined day 18; vs control group
Experimental: Adjuvant-induced arthritis, modification in accordance with […] (Proc. Soc. exp. Biol. Med. 137, 506 (1971)) Male rats of a Lewis strain (Moellegard, Denmark) having a body weight of from 160 to 210 g are used as the experimental animals. On the 1st day, the animals are injected subcutaneously, into the tail root, with complete Freund's adjuvant containing a suspension of Mycobacterium butyricum in heavy paraffin oil (Difco; […] in paraffin oil; Merck). Compounds 1 and 2 are suspended in carboxymethyl cellulose (1% in water) and this suspension is administered orally. The compounds are administered once daily from the 1st to the 12th day of the experiment. The paw volume and the arthritis index are determined on the 18th day. The severity of the disorder is determined by measuring the volumes of both hind paws. The measurement is carried out by the water displacement method, using a 2060 plethysmometer (Rhema-Labortechnik, Hofheim, Germany). In addition, the arthritis index is determined on the 18th day after injection. [table] Animals forming a control group are only given the solvent (1% carboxymethyl cellulose in water). 6 animals are used for each dose and in the control group. A reduction in the increase in paw volume and a decrease in the arthritis index, as compared with the untreated control group, are used as the criteria for an effect having been achieved.

| Compound | effect of oral administration, compound on its own [1] | Decrease in arthritis index [2] [%] | Decrease in paw volume [2] [%] |
| --- | --- | --- | --- |
| C/C(O)=C(\C#N)C(=O)Nc1ccc(C(F)(F)F)cc1 [Compound 2, N-(4-trifluoromethylphenyl)-2-cyano-3-hydroxycrotonamide] | does not have any significant effect | – | – |
| Cc1oncc1C(=O)Nc1ccc(C(F)(F)F)cc1 [Compound 1, 5-methyl-4′-trifluoromethyl-4-isoxazolecarboxanilide] | does not have any significant effect | 58 | 74 |
